Here are results for ten compounds from patent publication US6924300B2, “Oxyiminoalkanoic acid derivatives” (Takeda Chemical Industries, Ltd., priority 1998, dated 2005).

Data set [1] deals with KKA^y mice. Description: Hypoglycemic and hypolipidemic actions in mice (test compound in diet, plasma glucose and triglyceride). Format: in vivo. The conditions noted are these: Mus musculus, feed or water, 96 h, 4 days. On the procedure:
A test compound was added to a powdered diet (CE-2, Clea Japan Inc.) at a concentration of 0.01%, and the diet was given ad libitum to KKA^y mice (9 to 12 weeks old, 5 animals in a group), a model of obese Type II diabetes mellitus (non-insulin dependent diabetes mellitus), for 4 days. During this period, water was given ad libitum. Blood was sampled from orbital venous plexus and plasma glucose and triglyceride levels were determined enzymatically using L type Wako Glu2 (Wako Pure Chemical In. Ltd.) and Iatro-MA701 TG kit (Iatron Laboratories Inc.) or L type Wako TG.H (Wako Pure Chemical Ind. Ltd.), respectively.
The value of each treatment group is represented as % reduction when compared with the non-treatment group, and summarized in Table 1.

Data set [2] deals with T1, PPARγ-RXRα heterodimer (Homo sapiens, UniProt P37231).
T1 construct: expressed in transfected cells
T1 sequence (P37231 1-477 isoform P37231-2): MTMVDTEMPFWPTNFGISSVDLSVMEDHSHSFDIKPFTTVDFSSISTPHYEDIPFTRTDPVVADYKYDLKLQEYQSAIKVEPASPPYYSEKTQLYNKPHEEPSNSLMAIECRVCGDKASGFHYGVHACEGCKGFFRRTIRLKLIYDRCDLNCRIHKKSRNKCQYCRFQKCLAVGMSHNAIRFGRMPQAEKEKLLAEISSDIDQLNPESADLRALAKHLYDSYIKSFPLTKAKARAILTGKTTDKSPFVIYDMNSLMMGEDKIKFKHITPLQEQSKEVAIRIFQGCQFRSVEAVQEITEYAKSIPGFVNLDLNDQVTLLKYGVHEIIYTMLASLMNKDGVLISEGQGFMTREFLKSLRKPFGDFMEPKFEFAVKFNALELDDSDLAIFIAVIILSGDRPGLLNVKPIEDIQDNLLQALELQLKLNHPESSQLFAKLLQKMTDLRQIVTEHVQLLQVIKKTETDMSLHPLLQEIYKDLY
T1 sequence (P19793 1-462 partner): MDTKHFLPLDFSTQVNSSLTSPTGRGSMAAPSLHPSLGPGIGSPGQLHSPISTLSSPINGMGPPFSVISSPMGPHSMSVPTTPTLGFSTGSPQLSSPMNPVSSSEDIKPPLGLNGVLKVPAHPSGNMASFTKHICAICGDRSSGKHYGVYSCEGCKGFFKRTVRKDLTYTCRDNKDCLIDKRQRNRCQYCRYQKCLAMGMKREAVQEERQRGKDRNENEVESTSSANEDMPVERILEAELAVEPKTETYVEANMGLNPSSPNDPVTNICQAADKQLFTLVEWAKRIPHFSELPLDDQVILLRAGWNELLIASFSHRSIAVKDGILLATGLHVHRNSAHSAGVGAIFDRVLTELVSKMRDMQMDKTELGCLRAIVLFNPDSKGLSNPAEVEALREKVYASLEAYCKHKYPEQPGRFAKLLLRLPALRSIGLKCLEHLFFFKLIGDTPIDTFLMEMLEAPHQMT
Briefly: PPARγ-RXRα heterodimer transactivation assay (luciferase reporter in PPARγ: RXRα: 4ERPP/CHO-K1 cell). Format: cell-based. The conditions noted are these: luciferase induction, 48 hours, concentration for 50% of the maximum activity. On the procedure: After washing a 96-well white plate with PBS (Phosphate-buffered saline), 90 μl of HAM F12 medium containing 0.1% fatty acid-free bovine serum albumin (BSA) and 10 μl of a test substance were added to the plate, which was then cultured in a carbonate gas incubator at 37° C. for 48 hours. After removing the medium, 40 μl of […] 7.5 (Wako Pure Chemical Ind. Ltd.) was added, and after stirring, a luciferase activity was determined using Lumistar (BMG Labtechnologies GmBH, Germany).
An induction magnitude was calculated based on the luciferase activity of each test substance with the luciferase activity in the non-treatment group being regarded as 1.
Subsequently, the cells were transferred into a HAM F12 medium containing 10% Fetal Bovine Serum and cultured for 24 hours and then the cells were scraped again and centrifuged, and then suspended in HAM F12 medium containing 10% Fetal Bovine Serum supplemented with 500 μg/ml of GENETICIN (Life Technologies, Inc., USA) and 250 μg of ZEOCIN (Invitrogen, USA) and diluted to the density of 10^4 cells/ml upon inoculation to a 96-well plate (Corning Coster Corporation, USA), which was cultured in a carbonate gas incubator at 37° C., whereby obtaining a GENETICIN- and ZEOCIN-resistant transformant.
Subsequently, the transformant cell line thus obtained was cultured in a 24-well plate (Corning Coster Corporation, USA) and then screened, by addition of 10 μM Pioglitazone, for a cell line in which the luciferase expression was induced, i.e., PPARγ: RXRα: 4ERPP/CHO-K1 cell.
(In general: In a reporter assay the amount or activity of a reporter protein is the signal.)

For data set [3], the system named is KKA^y mice. Description: Hypoglycemic and hypolipidemic actions in mice (test compound in diet, plasma glucose and triglyceride). In kind it is in vivo. To be noted: Mus musculus, feed or water, 96 h, dosage: 0.005% in diet, 4 days.
[4] abbreviates: 0.01% in diet, plasma triglyceride, Iatro-MA701 TG kit, compared with non-treatment group, read-out: Hypotriglyceridemic effect (% reduction).
Setting [5] is: 0.01% in powdered diet, plasma glucose, compared with non-treatment group, read-out: Hypoglycemic effect (% reduction).
Where [6] appears, read: 0.01% in diet, plasma triglyceride, quantified using L-type Wako TG.H, read-out: Hypotriglyceridemic effect (% reduction).

Usually EC50 stands for the concentration giving half of the maximal effect. The melting point is the temperature, or range, at which the solid turns liquid.

Where two headings read alike, the source gives them in different places.

For `Cc1oc(-c2ccccc2)nc1COc1ccc(CO/N=C(\C(=O)O)c2ccccc2)cc1` [Example 1, Z-2-[4-(5-methyl-2-phenyl-4-oxazolylmethoxy)benzyloxyimino]-2-phenylacetic acid], the inhibition in vivo at 0.01 % worked out at 35% in data set [1] (setting [4]) and 36% in data set [1] (setting [5]).
`Cc1oc(-c2ccccc2)nc1COc1ccc(CO/N=C(\CCC(=O)O)c2ccccc2)cc1` [Example 7, E-4-[4-(5-methyl-2-phenyl-4-oxazolylmethoxy)benzyloxyimino]-4-phenylbutyric acid]: the values for the inhibition in vivo at 0.01 % in data set [1] (setting [4]) and in data set [1] (setting [5]) were 61% and 42%, respectively.
The corresponding values for `Cc1oc(-c2ccccc2)nc1COc1ccc(CO/N=C(\C(=O)O)c2ccc(Br)cc2)cc1` [Example 10, Z-2-(4-bromophenyl)-2-[4-(5-methyl-2-phenyl-4-oxazolylmethoxy)benzyloxyimino]acetic acid] are 45% and 36%.
In data set [2], `Cc1oc(-c2ccccc2)nc1COc1ccc(CO/N=C(\C(=O)O)c2ccc(Oc3ccccc3)cc2)cc1` [Example 11, Z-2-[4-(5-methyl-2-phenyl-4-oxazolylmethoxy)benzyloxyimino]-2-(4-phenoxyphenyl)acetic acid] gave an EC50 of 410 nM. Besides, the inhibition in vivo at 0.01 % in data set [1] (setting [4]) was 82%; in data set [1] (setting [5]), 49%.
Take `Cc1oc(-c2ccccc2)nc1COc1ccc(CO/N=C(\CCC(=O)O)c2ccc(F)cc2)cc1` [Example 17, E-4-(4-fluorophenyl)-4-[4-(5-methyl-2-phenyl-4-oxazolylmethoxy)benzyloxyimino]butyric acid]: the EC50 in data set [2] is 47 nM. The results for the inhibition in vivo at 0.01 % in data set [1] (setting [6]) and in data set [1] (setting [5]) were 59% and 49%, respectively.
For `Cc1oc(-c2ccccc2)nc1COc1ccc(CO/N=C(\C(=O)O)C(C)C)cc1` [Example 25, Z-3-methyl-2-[4-(5-methyl-2-phenyl-4-oxazolylmethoxy)benzyloxyimino]butyric acid], in data set [2], the EC50 worked out at 790 nM. Besides, the inhibition in vivo at 0.01 % was 66% in data set [1] (setting [4]) and 38% in data set [1] (setting [5]).
`Cc1oc(-c2ccccc2)nc1COc1ccc(CO/N=C(\CCCCCCC(=O)O)c2ccccc2)cc1` [Example 81, E-8-[4-(5-methyl-2-phenyl-4-oxazolylmethoxy)benzyloxyimino]-8-phenyloctanoic acid]: the midpoint of the response in data set [2], the EC50, lay at 260 nM. The inhibition in vivo at 0.01 % in data set [1] (setting [6]) was found to be 75%; in data set [1] (setting [5]), 54%.
`Cc1oc(-c2ccccc2)nc1COc1ccc(CO/N=C(\CCC(N)=O)c2ccccc2)cc1` [Example 106, E-4-[4-(5-methyl-2-phenyl-4-oxazolylmethoxy)benzyloxyimino]-4-phenylbutyramide] came in with a melting point of 164 to 165 °C. Also, the EC50 in data set [2] is 330 nM. Moreover, the inhibition in vivo at 0.005 % in data set [3] (plasma glucose, compared with non-treatment group, read-out: Hypoglycemic effect (% reduction)) was 46%. Moreover, in data set [3] (plasma triglyceride, quantified using L-type Wako TG.H, read-out: Hypotriglyceridemic effect (% reduction)), the inhibition in vivo at 0.005 % turned out to be 65%.
On to `COC(=O)CC/C(=N\OCc1ccc(OCc2nc(-c3ccccc3)oc2C)c(OC)c1)c1ccccc1` [Example 149, methyl E-4-[3-methoxy-4-(5-methyl-2-phenyl-4-oxazolylmethoxy)benzyloxyimino]-4-phenylbutyrate], for which the melting point was in the range of 112 to 114 °C.
The same measure, in the same setting: as for `COc1cc(CO/N=C(\CCC(=O)O)c2ccccc2)ccc1OCc1nc(-c2ccccc2)oc1C` [Example 150, E-4-[3-methoxy-4-(5-methyl-2-phenyl-4-oxazolylmethoxy)benzyloxyimino]-4-phenylbutyric acid], the figure is 134 to 135 °C.
